Measured values published in patent US12252701B2, “Chimeric antigen receptor T cell therapy” (KITE PHARMA, INC., priority 2020, dated 2025).

What was measured:
[1] = tested on: phospho-STAT-1, -3 and -5 in purified CD14+ monocytes; assay: Intracellular phospho-STAT-1, -3, -5 by BD PhosphoFlow in purified monocytes; format: cell-based, human; set-up: Monocyte-specific pSTAT1 signaling, inhibition / Monocyte-specific pSTAT3 signaling, inhibition / Monocyte-specific pSTAT5 signaling, inhibition: concentration or dose not given beside the values
Procedure: Further experiments were performed to look at impacts of JAK inhibitors on STAT phosphorylation in various immune cell subsets.

[2] = tested on: phospho-STAT panel (pSTAT3/4/5), CD3+ T cells; assay: phospho-STAT induction by IL-6, MesoScale Discovery phospho-STAT panel; format: cell-based, human; conditions: for pSTAT3 / pSTAT4 / pSTAT5: CD3+ T cells
Procedure: CD19 CAR-T, PBMC or CD3+ T cells (AllCells) were thawed and rested 0/N at 37° C. in R10 media. Cells were seeded at 700,000 cells/well and were either untreated or treated with 100 ng/ml IL6+drug at indicated concentrations for 20 minutes at 37° C. The cells were then washed with cold PBS and followed by 60 μl of Tris lysis buffer (provided by MSD) for 30 minutes on ice. Lysates were collected by spin down for 10 minutes at >10,000 rpm. 25 μl/well per condition was used for MesoScale Discovery (MSD) assay using the phospho-STAT panel (pSTAT3/4/5) from MesoScale Discovery following the manufacturer's protocol. pSTAT panel plates were blocked with 150 μl of blocker A solution for 1 hr at RT with shaking. Plates were washed three times with 1× Tris wash buffer. 25 μl of lysate samples were added per well, incubated 2 hr at room temperature or at 4° C. overnight. Plates were washed 3 times with 1× tris wash buffer and then 25 μl of detection antibody solution were added to each well and incubated for 1 hr at room temperature with shaking. Plates were washed and 1× read buffer added to each well and plates were read on the MSD instrument.

[3] = tested on: Nalm-6 luc; assay: CAR-T cell killing assay (luciferase viability of tumor cells)
[4] = purified CD14+ monocytes, CAR T cell-derived supernatant, 30 min
[5] = purified CD14+ monocytes, rh-GM-CSF-induced
[6] = purified CD14+ monocytes, rhIFNg-induced
[7] = purified CD14+ monocytes, rhIL6-induced
[8] = purified monocytes, CAR T derived cytokines/supernatant stimulation, 30 min
[9] = 100 ng/ml IL-6 + drug 10 uM, 20 min, MSD signal (No stim. 689, IL-6 alone 33641)
[10] = 100 ng/ml IL-6 + drug 10 uM, 20 min, MSD signal (No stim. 1964, IL-6 alone 15405)
[11] = 100 ng/ml IL-6 + drug 10 uM, 20 min, MSD signal (No stim. 9210, IL-6 alone 17743)
[12] = IL-6 + drug 0.125 uM, MSD signal (No stim. 689, IL-6 alone 33641)
[13] = IL-6 + drug 0.125 uM, MSD signal (No stim. 1964, IL-6 alone 15405)
[14] = IL-6 + drug 0.125 uM, MSD signal (No stim. 9210, IL-6 alone 17743)
[15] = IL-6 + drug 0.5 uM, MSD signal (No stim. 689, IL-6 alone 33641)
[16] = IL-6 + drug 0.5 uM, MSD signal (No stim. 1964, IL-6 alone 15405)
[17] = IL-6 + drug 0.5 uM, MSD signal (No stim. 9210, IL-6 alone 17743)
[18] = IL-6 + drug 1 uM, MSD signal (No stim. 689, IL-6 alone 33641)
[19] = IL-6 + drug 1 uM, MSD signal (No stim. 1964, IL-6 alone 15405)
[20] = IL-6 + drug 1 uM, MSD signal (No stim. 9210, IL-6 alone 17743)
[21] = IL-6 + drug 5 uM, MSD signal (No stim. 689, IL-6 alone 33641)
[22] = IL-6 + drug 5 uM, MSD signal (No stim. 1964, IL-6 alone 15405)
[23] = IL-6 + drug 5 uM, MSD signal (No stim. 9210, IL-6 alone 17743)
[24] = lower dose titration, IL-6 + drug 3.125 nM, MSD signal (No stim. 123, IL-6 alone 5767)
[25] = lower dose titration, IL-6 + drug 3.125 nM, MSD signal (No stim. 281, IL-6 alone 3624)
[26] = lower dose titration, IL-6 + drug 3.125 nM, MSD signal (No stim. 324, IL-6 alone 2352)
[27] = lower dose titration, IL-6 + drug 6.25 nM, MSD signal (No stim. 123, IL-6 alone 5767)
[28] = lower dose titration, IL-6 + drug 6.25 nM, MSD signal (No stim. 281, IL-6 alone 3624)
[29] = lower dose titration, IL-6 + drug 6.25 nM, MSD signal (No stim. 324, IL-6 alone 2352)
[30] = lower dose titration, IL-6 + drug 12.5 nM, MSD signal (No stim. 123, IL-6 alone 5767)
[31] = lower dose titration, IL-6 + drug 12.5 nM, MSD signal (No stim. 281, IL-6 alone 3624)
[32] = lower dose titration, IL-6 + drug 12.5 nM, MSD signal (No stim. 324, IL-6 alone 2352)
[33] = lower dose titration, IL-6 + drug 25 nM, MSD signal (No stim. 123, IL-6 alone 5767)
[34] = lower dose titration, IL-6 + drug 25 nM, MSD signal (No stim. 281, IL-6 alone 3624)
[35] = lower dose titration, IL-6 + drug 25 nM, MSD signal (No stim. 324, IL-6 alone 2352)
[36] = lower dose titration, IL-6 + drug 50 nM, MSD signal (No stim. 123, IL-6 alone 5767)
[37] = lower dose titration, IL-6 + drug 50 nM, MSD signal (No stim. 281, IL-6 alone 3624)
[38] = lower dose titration, IL-6 + drug 50 nM, MSD signal (No stim. 324, IL-6 alone 2352)
[39] = lower dose titration, IL-6 + drug 100 nM, MSD signal (No stim. 123, IL-6 alone 5767)
[40] = lower dose titration, IL-6 + drug 100 nM, MSD signal (No stim. 281, IL-6 alone 3624)
[41] = lower dose titration, IL-6 + drug 100 nM, MSD signal (No stim. 324, IL-6 alone 2352)

O=C(Nc1nc2cccc(-c3ccc(CN4CCS(=O)(=O)CC4)cc3)n2n1)C1CC1 [filgotinib]
IFN-gamma induction of pSTAT-1, 3 and 5 [1]: strongly suppressed
pSTAT-5 induction by GM-CSF ([1]; purified CD14+ monocytes): not inhibited
Monocyte-specific pSTAT1 signaling, inhibition [1, 4]: 91%
Monocyte-specific pSTAT3 signaling, inhibition [1, 4]: 100%
Monocyte-specific pSTAT5 signaling, inhibition [1, 4]: 0%
Monocyte-specific pSTAT1 signaling, inhibition [1, 5]: na/ni
Monocyte-specific pSTAT3 signaling, inhibition [1, 5]: na/ni
Monocyte-specific pSTAT5 signaling, inhibition [1, 5]: 0%
Monocyte-specific pSTAT1 signaling, inhibition [1, 6]: 100%
Monocyte-specific pSTAT3 signaling, inhibition [1, 6]: 100%
Monocyte-specific pSTAT5 signaling, inhibition [1, 6]: 98%
Monocyte-specific pSTAT1 signaling, inhibition [1, 7]: na/ni
Monocyte-specific pSTAT3 signaling, inhibition [1, 7]: 51%
Monocyte-specific pSTAT5 signaling, inhibition [1, 7]: na/ni
pSTAT-3 inhibition ([1]; purified monocytes stimulated by IL-6): 51%
pSTAT1 inhibition [1, 8]: 91%
pSTAT3 inhibition [1, 8]: 100%
pSTAT3 [2, 9]: 2169
pSTAT4 [2, 10]: 2121
pSTAT5 [2, 11]: 1610
pSTAT3 [2, 12]: 23255
pSTAT4 [2, 13]: 9977
pSTAT5 [2, 14]: 10484
pSTAT3 [2, 15]: 15242
pSTAT4 [2, 16]: 5570
pSTAT5 [2, 17]: 5170
pSTAT3 [2, 18]: 11163
pSTAT4 [2, 19]: 4642
pSTAT5 [2, 20]: 3679
pSTAT3 [2, 21]: 2667
pSTAT4 [2, 22]: 2172
pSTAT5 [2, 23]: 1797
effect on phosphorylated-STAT-1, STAT-3 and STAT-5 levels ([2]; IL-6 stimulation 100 ng/ml, 20 minutes, 10 μM to 0.125 μM): reduction of phosphorylated-STAT-1, STAT-3 and STAT-5 levels in a dose-responsive manner
pSTAT3 [2, 24]: 4968
pSTAT4 [2, 25]: 3059
pSTAT5 [2, 26]: 2812
pSTAT3 [2, 27]: 6740
pSTAT4 [2, 28]: 4324
pSTAT5 [2, 29]: 2724
pSTAT3 [2, 30]: 6547
pSTAT4 [2, 31]: 3479
pSTAT5 [2, 32]: 2253
pSTAT3 [2, 33]: 5737
pSTAT4 [2, 34]: 3452
pSTAT5 [2, 35]: 2020
pSTAT3 [2, 36]: 6248
pSTAT4 [2, 37]: 3208
pSTAT5 [2, 38]: 1951
pSTAT3 [2, 39]: 5441
pSTAT4 [2, 40]: 2047
pSTAT5 [2, 41]: 1246
Mean tumor cell death (%) ([3]; E:T ratio 1:1, dose 250 nM): 96.89%
Mean tumor cell death (%) ([3]; E:T ratio 1:1, dose 500 nM): 97.54%
Mean tumor cell death (%) ([3]; E:T ratio 1:1, dose 1000 nM): 92.04%
Mean tumor cell death (%) ([3]; E:T ratio 1:3, dose 250 nM): 55.79%
Mean tumor cell death (%) ([3]; E:T ratio 1:3, dose 500 nM): 48.50%
Mean tumor cell death (%) ([3]; E:T ratio 1:3, dose 1000 nM): 35.36%
Mean tumor cell death (%) ([3]; E:T ratio 1:9, dose 250 nM): 20.47%
Mean tumor cell death (%) ([3]; E:T ratio 1:9, dose 500 nM): 14.82%
Mean tumor cell death (%) ([3]; E:T ratio 1:9, dose 1000 nM): 9.49%

CC[C@@H]1CN(C(=O)NCC(F)(F)F)C[C@@H]1c1cnc2cnc3[nH]ccc3n12 [upadacitinib]
Monocyte-specific pSTAT1 signaling, inhibition [1, 4]: 100%
Monocyte-specific pSTAT3 signaling, inhibition [1, 4]: 100%
Monocyte-specific pSTAT5 signaling, inhibition [1, 4]: 63%
Monocyte-specific pSTAT1 signaling, inhibition [1, 5]: na/ni
Monocyte-specific pSTAT3 signaling, inhibition [1, 5]: na/ni
Monocyte-specific pSTAT5 signaling, inhibition [1, 5]: 54%
Monocyte-specific pSTAT1 signaling, inhibition [1, 6]: 100%
Monocyte-specific pSTAT3 signaling, inhibition [1, 6]: 100%
Monocyte-specific pSTAT5 signaling, inhibition [1, 6]: 100%
Monocyte-specific pSTAT1 signaling, inhibition [1, 7]: na/ni
Monocyte-specific pSTAT3 signaling, inhibition [1, 7]: 100%
Monocyte-specific pSTAT5 signaling, inhibition [1, 7]: na/ni
pSTAT3 [2, 9]: 2450
pSTAT4 [2, 10]: 2322
pSTAT5 [2, 11]: 1354
pSTAT3 [2, 12]: 3605
pSTAT4 [2, 13]: 2819
pSTAT5 [2, 14]: 1757
pSTAT3 [2, 15]: 2207
pSTAT4 [2, 16]: 2397
pSTAT5 [2, 17]: 1528
pSTAT3 [2, 18]: 2393
pSTAT4 [2, 19]: 2417
pSTAT5 [2, 20]: 1534
pSTAT3 [2, 21]: 2290
pSTAT4 [2, 22]: 2229
pSTAT5 [2, 23]: 1452
pSTAT3 [2, 24]: 4615
pSTAT4 [2, 25]: 2687
pSTAT5 [2, 26]: 1166
pSTAT3 [2, 27]: 3572
pSTAT4 [2, 28]: 2797
pSTAT5 [2, 29]: 1123
pSTAT3 [2, 30]: 2560
pSTAT4 [2, 31]: 1607
pSTAT5 [2, 32]: 696
pSTAT3 [2, 33]: 1495
pSTAT4 [2, 34]: 1248
pSTAT5 [2, 35]: 564
pSTAT3 [2, 36]: 713
pSTAT4 [2, 37]: 860
pSTAT5 [2, 38]: 460
pSTAT3 [2, 39]: 319
pSTAT4 [2, 40]: 555
pSTAT5 [2, 41]: 375
Mean tumor cell death (%) ([3]; E:T ratio 1:1, dose 10 nM): 96.9%
Mean tumor cell death (%) ([3]; E:T ratio 1:1, dose 20 nM): 96.3%
Mean tumor cell death (%) ([3]; E:T ratio 1:1, dose 40 nM): 96.3%
Mean tumor cell death (%) ([3]; E:T ratio 1:1, dose 60 nM): 94.5%
Mean tumor cell death (%) ([3]; E:T ratio 1:1, dose 80 nM): 94.4%
Mean tumor cell death (%) ([3]; E:T ratio 1:1, dose 100 nM): 92%
Mean tumor cell death (%) ([3]; E:T ratio 1:3, dose 10 nM): 68.1%
Mean tumor cell death (%) ([3]; E:T ratio 1:3, dose 20 nM): 66.1%
Mean tumor cell death (%) ([3]; E:T ratio 1:3, dose 40 nM): 60.5%
Mean tumor cell death (%) ([3]; E:T ratio 1:3, dose 60 nM): 46.2%
Mean tumor cell death (%) ([3]; E:T ratio 1:3, dose 80 nM): 46.5%
Mean tumor cell death (%) ([3]; E:T ratio 1:3, dose 100 nM): 25.7%
Mean tumor cell death (%) ([3]; E:T ratio 1:9, dose 10 nM): 35.6%
Mean tumor cell death (%) ([3]; E:T ratio 1:9, dose 20 nM): 25.6%
Mean tumor cell death (%) ([3]; E:T ratio 1:9, dose 40 nM): 34.7%
Mean tumor cell death (%) ([3]; E:T ratio 1:9, dose 60 nM): 33.4%
Mean tumor cell death (%) ([3]; E:T ratio 1:9, dose 80 nM): 23%
Mean tumor cell death (%) ([3]; E:T ratio 1:9, dose 100 nM): 16.9%
